# From the supplement of paper PMC11208160
# Test: recombinant barcode read abundance after kanamycin selection (control-corrected) (log10(CPM+1)); higher = more efficient recombination; sequences stand for … in AGTGCAGAGAAAATCGGCCAGTTTTCTCTGCCTGCAGTCCGCATGCCGT…ATTTATGCAGCGGACTGCCTTTCTCCCAAAGTGATAAACCGGACAGTATCATGGACCGGTTTTCCCGGTAATCCGTATTTGCAAGGTTGGTTTCACT; site = the 11-nt target
# Method: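 Same pooled E. coli target screen (IS621 bridge recombinase, kanamycin selection, control-corrected CPM, mean of 2 biological replicates). Here the two core-binding nucleotides of the LTG and RTG of the bridge RNA target-binding loop are mutated. Target and donor CT cores are held constant, and the other 9 guide positions match the target. The target is read from the library oligo sequence. Molecule = full bridge RNA written as DNA: nt 1-80 from the library oligo, rest WT scaffold.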
row,Sequence,recombinant barcode read abundance (log10)
1,"AAACACAAATGGGTTCTAACCTGTTGCCTTT [AAACACACTAG_LTGcore_AA_RTGcore_AA] (site AAACACACTAG) (LTG core: AA, RTG core: AA)",0.0994
2,"AAACACAAGTGGGTTCTAACCTGTTGCCTAG [AAACACACTAG_LTGcore_AG_RTGcore_CT] (site AAACACACTAG) (LTG core: AG, RTG core: CT)",0.0385
3,"AAACACACCTGGGTTCTAACCTGTTGCCTGG [AAACACACTAG_LTGcore_CC_RTGcore_CC] (site AAACACACTAG) (LTG core: CC, RTG core: CC)",1.46
4,"AAACACACGTGGGTTCTAACCTGTTGCCTAG [AAACACACTAG_LTGcore_CG_RTGcore_CT] (site AAACACACTAG) (LTG core: CG, RTG core: CT)",0.622
5,"AAACACACTTGGGTTCTAACCTGTTGCCTGG [AAACACACTAG_LTGcore_CT_RTGcore_CC] (site AAACACACTAG) (LTG core: CT, RTG core: CC)",0.927
6,"AAACACACTTGGGTTCTAACCTGTTGCCTGT [AAACACACTAG_LTGcore_CT_RTGcore_AC] (site AAACACACTAG) (LTG core: CT, RTG core: AC)",0.639
7,"AAACACACTTGGGTTCTAACCTGTTGCCTTT [AAACACACTAG_LTGcore_CT_RTGcore_AA] (site AAACACACTAG) (LTG core: CT, RTG core: AA)",0.938
8,"AAACACAGATGGGTTCTAACCTGTTGCCTAG [AAACACACTAG_LTGcore_GA_RTGcore_CT] (site AAACACACTAG) (LTG core: GA, RTG core: CT)",0.0116
9,"AAACACATGTGGGTTCTAACCTGTTGCCTCA [AAACACACTAG_LTGcore_TG_RTGcore_TG] (site AAACACACTAG) (LTG core: TG, RTG core: TG)",0.0962
10,"AAACACATTTGGGTTCTAACCTGTTGCCTAG [AAACACACTAG_LTGcore_TT_RTGcore_CT] (site AAACACACTAG) (LTG core: TT, RTG core: CT)",0.0289
11,"AAACAGTAGTGGGTTCTAACCTGTTGCCTCT [AAACAGTCTAG_LTGcore_AG_RTGcore_AG] (site AAACAGTCTAG) (LTG core: AG, RTG core: AG)",0.13
12,"AAACAGTATTGGGTTCTAACCTGTTGCCTAT [AAACAGTCTAG_LTGcore_AT_RTGcore_AT] (site AAACAGTCTAG) (LTG core: AT, RTG core: AT)",0.204
13,"AAACAGTCTTGGGTTCTAACCTGTTGCCTAG [AAACAGTCTAG_LTGcore_CT_RTGcore_CT] (site AAACAGTCTAG) (LTG core: CT, RTG core: CT)",2.46
14,"AAACAGTCTTGGGTTCTAACCTGTTGCCTGA [AAACAGTCTAG_LTGcore_CT_RTGcore_TC] (site AAACAGTCTAG) (LTG core: CT, RTG core: TC)",0.883
15,"AAACAGTCTTGGGTTCTAACCTGTTGCCTGG [AAACAGTCTAG_LTGcore_CT_RTGcore_CC] (site AAACAGTCTAG) (LTG core: CT, RTG core: CC)",0.921
16,"AAACAGTCTTGGGTTCTAACCTGTTGCCTTA [AAACAGTCTAG_LTGcore_CT_RTGcore_TA] (site AAACAGTCTAG) (LTG core: CT, RTG core: TA)",1.78
17,"AAACAGTGCTGGGTTCTAACCTGTTGCCTAG [AAACAGTCTAG_LTGcore_GC_RTGcore_CT] (site AAACAGTCTAG) (LTG core: GC, RTG core: CT)",0.16
18,"AAACAGTTCTGGGTTCTAACCTGTTGCCTGA [AAACAGTCTAG_LTGcore_TC_RTGcore_TC] (site AAACAGTCTAG) (LTG core: TC, RTG core: TC)",0.262
19,"AAACATGAATGGGTTCTAACCTGTTGCCTTT [AAACATGCTAG_LTGcore_AA_RTGcore_AA] (site AAACATGCTAG) (LTG core: AA, RTG core: AA)",0.133
20,"AAACATGACTGGGTTCTAACCTGTTGCCTAG [AAACATGCTAG_LTGcore_AC_RTGcore_CT] (site AAACATGCTAG) (LTG core: AC, RTG core: CT)",0.0862
21,"AAACATGATTGGGTTCTAACCTGTTGCCTAT [AAACATGCTAG_LTGcore_AT_RTGcore_AT] (site AAACATGCTAG) (LTG core: AT, RTG core: AT)",0.0454
22,"AAACATGCATGGGTTCTAACCTGTTGCCTAG [AAACATGCTAG_LTGcore_CA_RTGcore_CT] (site AAACATGCTAG) (LTG core: CA, RTG core: CT)",0.141

row,Sequence,recombinant barcode read abundance (log10)
1,"AAACATGCATGGGTTCTAACCTGTTGCCTTG [AAACATGCTAG_LTGcore_CA_RTGcore_CA] (site AAACATGCTAG) (LTG core: CA, RTG core: CA)",0.0197
2,"AAACATGCTTGGGTTCTAACCTGTTGCCTAG [AAACATGCTAG_LTGcore_CT_RTGcore_CT] (site AAACATGCTAG) (LTG core: CT, RTG core: CT)",1.43
3,"AAACATGCTTGGGTTCTAACCTGTTGCCTGA [AAACATGCTAG_LTGcore_CT_RTGcore_TC] (site AAACATGCTAG) (LTG core: CT, RTG core: TC)",1.4
4,"AAACATGGCTGGGTTCTAACCTGTTGCCTAG [AAACATGCTAG_LTGcore_GC_RTGcore_CT] (site AAACATGCTAG) (LTG core: GC, RTG core: CT)",0.349
5,"AAACATGGCTGGGTTCTAACCTGTTGCCTGC [AAACATGCTAG_LTGcore_GC_RTGcore_GC] (site AAACATGCTAG) (LTG core: GC, RTG core: GC)",0.233
6,"AAACATGTGTGGGTTCTAACCTGTTGCCTAG [AAACATGCTAG_LTGcore_TG_RTGcore_CT] (site AAACATGCTAG) (LTG core: TG, RTG core: CT)",0.0752
7,"AAACATGTTTGGGTTCTAACCTGTTGCCTAA [AAACATGCTAG_LTGcore_TT_RTGcore_TT] (site AAACATGCTAG) (LTG core: TT, RTG core: TT)",0.632
8,"ACGGGACAGTGGGTTCTAACCTGTTGCAGAG [ACGGGACCTCT_LTGcore_AG_RTGcore_CT] (site ACGGGACCTCT) (LTG core: AG, RTG core: CT)",0.111
9,"ACGGGACCATGGGTTCTAACCTGTTGCAGAG [ACGGGACCTCT_LTGcore_CA_RTGcore_CT] (site ACGGGACCTCT) (LTG core: CA, RTG core: CT)",2.09
10,"ACGGGACCATGGGTTCTAACCTGTTGCAGTG [ACGGGACCTCT_LTGcore_CA_RTGcore_CA] (site ACGGGACCTCT) (LTG core: CA, RTG core: CA)",0.127
11,"ACGGGACCCTGGGTTCTAACCTGTTGCAGAG [ACGGGACCTCT_LTGcore_CC_RTGcore_CT] (site ACGGGACCTCT) (LTG core: CC, RTG core: CT)",2.22
12,"ACGGGACCTTGGGTTCTAACCTGTTGCAGTT [ACGGGACCTCT_LTGcore_CT_RTGcore_AA] (site ACGGGACCTCT) (LTG core: CT, RTG core: AA)",0.29
13,"ACGGGACGCTGGGTTCTAACCTGTTGCAGGC [ACGGGACCTCT_LTGcore_GC_RTGcore_GC] (site ACGGGACCTCT) (LTG core: GC, RTG core: GC)",0.151
14,"ACGGGACGTTGGGTTCTAACCTGTTGCAGAC [ACGGGACCTCT_LTGcore_GT_RTGcore_GT] (site ACGGGACCTCT) (LTG core: GT, RTG core: GT)",0.0225
15,"ACGGGACTCTGGGTTCTAACCTGTTGCAGAG [ACGGGACCTCT_LTGcore_TC_RTGcore_CT] (site ACGGGACCTCT) (LTG core: TC, RTG core: CT)",0.0751
16,"AGGAGGTCTTGGGTTCTAACCTGTTGCCTTT [AGGAGGTCTAG_LTGcore_CT_RTGcore_AA] (site AGGAGGTCTAG) (LTG core: CT, RTG core: AA)",1.32
17,"AGGAGGTGGTGGGTTCTAACCTGTTGCCTAG [AGGAGGTCTAG_LTGcore_GG_RTGcore_CT] (site AGGAGGTCTAG) (LTG core: GG, RTG core: CT)",0.165
18,"AGGAGGTGTTGGGTTCTAACCTGTTGCCTAG [AGGAGGTCTAG_LTGcore_GT_RTGcore_CT] (site AGGAGGTCTAG) (LTG core: GT, RTG core: CT)",0
19,"AGGCCTCAATGGGTTCTAACCTGTTGCCTAG [AGGCCTCCTAG_LTGcore_AA_RTGcore_CT] (site AGGCCTCCTAG) (LTG core: AA, RTG core: CT)",0.0132
20,"AGGCCTCCATGGGTTCTAACCTGTTGCCTTG [AGGCCTCCTAG_LTGcore_CA_RTGcore_CA] (site AGGCCTCCTAG) (LTG core: CA, RTG core: CA)",0.128
21,"AGGCCTCCTTGGGTTCTAACCTGTTGCCTAT [AGGCCTCCTAG_LTGcore_CT_RTGcore_AT] (site AGGCCTCCTAG) (LTG core: CT, RTG core: AT)",0.576
22,"AGGCCTCCTTGGGTTCTAACCTGTTGCCTCT [AGGCCTCCTAG_LTGcore_CT_RTGcore_AG] (site AGGCCTCCTAG) (LTG core: CT, RTG core: AG)",0.369
